The results in this text go back to patent US20100040615A1, “Digalactolipidic Antigen Exposed on the Surface of Apicomplex Parasites, and Diagnostic and Therapeutic Use Thereof” (COMMISSARIAT A L'ENERGIE ATOMIQUE, priority 2007, published 2010).

A short description of this assay: Immunization of animals with purified galactolipid, sera tested for antibodies. Format: in vivo, rabbits and rat. The conditions noted are these: five immunizations, Freund's adjuvant, sera taken at D57. The protocol: Two rabbits and one rat were immunized with purified DGDG ([…]), according to the following protocol: • a first immunization (D0) by multisite subcutaneous injection (total volume of 1 ml) of 0.5 mg of antigen in 0.5 ml of a solution of NaCl (0.9%), emulsified in 0.5 ml of complete Freund's adjuvant, • a second immunization (D10) by subcutaneous (1 ml) and intramuscular (0.5 ml) injection of 0.5 mg of antigen in 0.75 ml of a solution of NaCl (0.9%), emulsified in 0.75 ml of incomplete Freund's adjuvant, • a third immunization (D21) by subcutaneous (1 ml) and intramuscular (0.5 ml) injection of 0.5 mg of antigen in 0.75 ml of a solution of NaCl (0.9%), emulsified in 0.75 ml of incomplete Freund's adjuvant, • a fourth immunization (D36) by intramuscular (0.5 ml) and intravenous (0.5 ml) injection: 0.17 mg of antigen in 0.25 ml of a solution of NaCl (0.9%), emulsified in 0.25 ml of incomplete Freund's adjuvant, injected intramuscularly, and 0.33 mg of antigen in 0.5 ml of a solution of NaCl (0.9%), injected intravenously, and • a fifth immunization (D50) by intramuscular (0.5 ml) and intravenous (0.5 ml) injection: 0.17 mg of antigen in 0.25 ml of a solution of NaCl (0.9%), emulsified in 0.25 ml of incomplete Freund's adjuvant, injected intramuscularly, and 0.33 mg of antigen in 0.5 ml of a solution of NaCl (0.9%), injected intravenously. […]

Take “1,2-diacyl-(α-D-galactopyranosyl-(1→6)-β-D-galactopyranosyl-(1′→3))-sn-glycerol [DGDG]”: the “induction of active serum (antibodies against the immunizing lipid)” value is given as “made it possible to obtain active sera containing antibodies that recognize DGDG”.

With monogalactosyldiacylglycerol [MGDG], the “induction of active serum (antibodies against the immunizing lipid)” value is reported as “did not make it possible to obtain active serum”.
